From patent EP2017264A1, “Substituted phenyl propargyl compounds, method for their manufacture and their use as herbicides and plant growth regulators” (BAYER CROPSCIENCE AG, priority 2007, dated 2009)

Columns and labels:
[1] = test system: Echinochloa crus-galli, Setaria viridis, Abuthilon theophrasti, Amaranthus retroflexus und Veronica persica; test: Post-emergence weed control, greenhouse pot test; assay type: in vivo; conditions: three-leaf stage, Aufwandmenge von 1,28 kg und weniger Aktivsubstanz pro Hektar, visual rating after ca. 3 bis 4 Wochen vs untreated controls
Description: Samen bzw. Rhizomstücke von mono- und dikotylen Unkräutern wurden in Plastiktöpfen in sandigem Lehmboden ausgelegt, mit Erde abgedeckt und im Gewächshaus unter guten Wachstumsbedingungen angezogen. Drei Wochen nach der Aussaat wurden die Versuchspflanzen im Dreiblattstadium behandelt. Die als Spritzpulver bzw. als Emulsionskonzentrate formulierten erfindungsgemäßen Verbindungen wurden in verschiedenen Dosierungen mit einer Wasseraufwandmenge von umgerechnet 600 bis 800 I/ha auf die grünen Pflanzenteile gesprüht. Nach ca. 3 bis 4 Wochen Standzeit der Versuchspflanzen im Gewächshaus unter optimalen Wachstumsbedingungen wurde die Wirkung der Präparate optisch im Vergleich zu unbehandelten Kontrollen bonitiert. Die erfindungsgemäßen Mittel wiesen auch im Nachauflauf eine gute herbizide Wirksamkeit gegen ein breites Spektrum wirtschaftlich wichtiger Ungräser und Unkräuter auf. Beispielsweise zeigten die Beispiele Nr.

[2] = test system: Echinochloa crus-galli, Setaria viridis, Stellaria media und Veronica persica; test: Pre-emergence weed control, greenhouse pot test; assay type: in vivo; conditions: Aufwandmenge von 1,28 kg oder weniger Aktivsubstanz pro Hektar, visual rating after 3 bis 4 Wochen vs untreated controls
Description: Samen bzw. Rhizomstücke von mono- und dikotylen Unkrautpflanzen wurden in Plastiktöpfen in sandiger Lehmerde ausgelegt und mit Erde abgedeckt. Die in Form von benetzbaren Pulvern oder Emulsionskonzentraten formulierten erfindungsgemäßen Verbindungen wurden dann als wäßrige Suspension bzw. Emulsion mit einer Wasseraufwandmenge von umgerechnet 600 bis 800 l/ha in unterschiedlichen Dosierungen auf die Oberfläche der Abdeckerde appliziert.
Nach der Behandlung wurden die Töpfe im Gewächshaus aufgestellt und unter guten Wachstumsbedingungen für die Unkräuter gehalten. Die optische Bonitur der Pflanzen- bzw. Auflaufschäden erfolgte nach dem Auflaufen der Versuchspflanzen nach einer Versuchszeit von 3 bis 4 Wochen im Vergleich zu unbehandelten Kontrollen. Wie die Testergebnisse zeigten, wiesen die erfindungsgemäßen Verbindungen eine gute herbizide Vorauflaufwirksamkeit gegen ein breites Spektrum von Ungräsern und Unkräutern auf.

Description for physchem: "LogP" = Verteilungskoeffizient in einem Zweiphasengemisch aus n-Octanol und Wasser.
Die log P-Daten wurden in Übereinstimmung mit der EEC Direktive 79/831, Anlage V.A8 (Annex V.A8) mittels HPLC (High Performance Liquid Chromatography) auf einer Umkehrphase-Säule (reversed-phase column) (C18) mit folgenden Methoden bestimmt: Temperatur: 40°C; Mobile Phase: 0,1 % bzw. 0,06 %ige wässrige Ameisensäure oder 0,1 % wässriger Phosphorsäure und Acetonitril; linearer Gradient von 10% Acetonitril bis 90% bzw. 95 % Acetonitril. Die Kalibrierung wurde ausgeführt mit Hilfe unverzweigter Alkan-2-one (bestehend aus 3 bis 13 bzw.16 Kohlenstoff-Atomen) mit bekannten IogP-Werten (Bestimmung der IogP-Werte über die Retentionszeiten mittels linearer Interpolation zwischen zwei nachfolgenden Alkanonen).

| Structure (SMILES) | chromatographic logP (physchem) | herbizide Wirkung gegen Schadpflanzen im Nachauflaufverfahren [1] | herbizide Wirkung gegen Schadpflanzen im Vorauflaufverfahren [2] |
| --- | --- | --- | --- |
| Cc1cccc(C=NOC(C)C#Cc2cccc([S+](C)[O-])c2)n1 (centres unmarked) [Beispiel 3.086] | 1.57 | sehr gute herbizide Wirkung | sehr gute herbizide Wirkung |
| CCC(=NOCC#Cc1cccc(CC#N)c1)c1ccc(C)cc1 [Beispiel 1.410] | 4.18 |  |  |
| COc1cc(F)ccc1C=NOCC#Cc1ccc(F)c([S+](C)[O-])c1F (centres unmarked) [Beispiel 1.438] | 2.75 |  |  |
| CCC(=NOCC#Cc1cccc(SC)c1)c1ccc(F)cc1 [Beispiel 1.413] | 4.97 |  |  |
| CCSc1cccc(C#CCON=Cc2ccc(F)cc2OC)c1 [Beispiel 1.069] | 4.9 |  |  |
| CCC(=NOCC#Cc1cccc(OC)c1)c1ccccc1F [Beispiel 1.415] | 4.42 |  |  |
| COc1nccnc1C=NOCC#Cc1cccc(CC#N)c1 [Beispiel 4.086] | 2.4 |  |  |
| COc1ccccc1C=NOCC#Cc1cccc(F)c1F [Beispiel 1.439] | 4.29 |  |  |
| CCC(=NOCC#Cc1cccc(OC)c1)c1ccc(F)cc1 [Beispiel 1.411] | 4.54 |  |  |
| CCC(=NOCC#Cc1cccc(C(F)(F)F)c1)c1ccc(C)cc1 [Beispiel 1.408] | 5.53 |  |  |
| COc1ccc(C=NOCC#Cc2cccc([S+](C)[O-])c2)c(OC)c1 (centres unmarked) [Beispiel 1.389] | 2.42 |  |  |
| COc1cccc(OC)c1C=NOCC#Cc1cccc([S+](C)[O-])c1 (centres unmarked) [Beispiel 1.396] | 2.04 |  |  |
| COc1ccccc1C=NOCC#Cc1ccc(C#N)c(SC)c1 [Beispiel 1.394] | 3.94 |  |  |
| COc1cc(F)ccc1C=NOCC#Cc1ccc(F)c(SC)c1 [Beispiel 1.066] | 4.58 |  |  |
| CCSc1cc(C#CCON=Cc2ccc(F)cc2OC)ccc1C [Beispiel 1.425] | 5.38 |  |  |
| Cc1ccc(C#CCON=Cc2ccccc2Oc2ccc(Cl)cc2)cc1[S+](C)[O-] (centres unmarked) [Beispiel 1.379] | 4.11 |  |  |
| COc1cc(F)ccc1C=NOCC#Cc1ccccc1[S+](C)[O-] (centres unmarked) [Beispiel 1.446] | 2.86 |  |  |
| COc1ncc(Cl)nc1C=NOCC#Cc1cccc([S+](C)[O-])c1 (centres unmarked) [Beispiel 4.098] | 2.18 |  |  |
| CCC(=NOCC#Cc1cccc([S+](C)[O-])c1)c1ccccc1 (centres unmarked) [Beispiel 1.420] | 2.93 |  |  |
| COc1nccnc1C=NOCC#Cc1cccc(S(C)(=O)=O)c1 [Beispiel 4.091] | 1.99 |  |  |
| CCC(=NOCC#Cc1cccc(CC#N)c1)c1ccccc1 [Beispiel 1.406] | 3.87 |  |  |
| CSc1cccc(C#CCON=C(C)c2cccc(C)n2)c1 [Beispiel 3.091] | 4.18 |  |  |
| CCC(=NOCC#Cc1cccc(C(F)(F)F)c1)c1ccccc1 [Beispiel 1.404] | 5.13 |  |  |
| COc1cc(F)ccc1C=NOCC#Cc1ccc(C#N)c(SC)c1 [Beispiel 1.395] | 3.97 |  |  |
| COc1ccccc1C=NOC(C)C#Cc1cccc(SC)c1 (centres unmarked) [Beispiel 1.301] | 4.85 | sehr gute herbizide Wirkung | sehr gute herbizide Wirkung |
| CCC(=NOCC#Cc1cccc([S+](C)[O-])c1)c1ccc(C)cc1 (centres unmarked) [Beispiel 1.421] | 3.46 |  |  |
| CSc1nccnc1C=NOCC#Cc1cccc(CC#N)c1 [Beispiel 4.080] | 2.99 |  |  |
| C=CCSc1cccc(C#CCON=Cc2ccc(F)cc2OC)c1 [Beispiel 1.432] | 5.24 |  |  |
| COc1ccccc1C=NOCC#Cc1cccc([S+]([O-])C(F)(F)F)c1 (centres unmarked) [Beispiel 1.380] | 3.88 |  |  |

Continued, in another order:

| chromatographic logP (physchem) | Structure (SMILES) | herbizide Wirkung gegen Schadpflanzen im Nachauflaufverfahren [1] | herbizide Wirkung gegen Schadpflanzen im Vorauflaufverfahren [2] |
| --- | --- | --- | --- |
| 4.87 | CSc1cccc(C#CCON=Cc2ccc(OC(C)C)nc2)c1 [Beispiel 5.177] | sehr gute herbizide Wirkung | sehr gute herbizide Wirkung |
| 4 | COc1ccc(C=NOCC#Cc2cccc(SC)c2)cn1 [Beispiel 5.120] | sehr gute herbizide Wirkung | sehr gute herbizide Wirkung |
| 2.77 | CC(C)Oc1ccc(C=NOCC#Cc2cccc([S+](C)[O-])c2)cn1 (centres unmarked) [Beispiel 5.181] | sehr gute herbizide Wirkung | sehr gute herbizide Wirkung |
| 4.42 | CCOc1ccc(C=NOCC#Cc2cccc(SC)c2)cn1 [Beispiel 5.190] | sehr gute herbizide Wirkung | sehr gute herbizide Wirkung |
| 2.89 | COc1ccc(C=NOCC#Cc2cccc([S+](C)[O-])c2)c(OC)n1 (centres unmarked) [Beispiel 5.185] | sehr gute herbizide Wirkung |  |
| 2.28 | COc1ncc(C=NOCC#Cc2cccc([S+](C)[O-])c2)cc1F (centres unmarked) [Beispiel 5.041] | sehr gute herbizide Wirkung | sehr gute herbizide Wirkung |
| 4.54 | COc1ccc(C=NOCC#Cc2cc(C)c(F)c(SC)c2)cn1 [Beispiel 5.142] |  |  |
| 2.5 | COc1ccc(C=NOCC#Cc2cccc(S(C)(=O)=O)c2)cn1 [Beispiel 5.122] |  |  |
| 2.23 | CSc1ccc(C=NOCC#Cc2cccc([S+](C)[O-])c2)cn1 (centres unmarked) [Beispiel 5.188] | sehr gute herbizide Wirkung |  |
| 2.42 | CCOc1ccc(C=NOCC#Cc2cccc([S+](C)[O-])c2)cn1 (centres unmarked) [Beispiel 5.189] | sehr gute herbizide Wirkung | sehr gute herbizide Wirkung |
| 3.43 | C[S+]([O-])c1cccc(C#CCON=Cc2ccc(C3CCCC3)nc2)c1 (centres unmarked) [Beispiel 5.196] |  |  |
| 4.03 | N#CCc1cccc(C#CCON=Cc2ccc(OCC(F)(F)F)nc2OCC(F)(F)F)c1 [Beispiel 5.192] |  |  |
| 3.69 | CC(C)Oc1ccc(C=NOCC#Cc2cccc(CC#N)c2)cn1 [Beispiel 5.178] |  |  |
| 2.76 | COc1ccc(C=NOCC#Cc2cc(C)c(F)c([S+](C)[O-])c2)cn1 (centres unmarked) [Beispiel 5.144] |  |  |
| 4.23 | COc1ncc(C=NOCC#Cc2cccc(SC)c2)cc1F [Beispiel 5.040] | sehr gute herbizide Wirkung | sehr gute herbizide Wirkung |
| 5.44 | CSc1cccc(C#CCON=Cc2ccc(C3CCCC3)nc2)c1 [Beispiel 5.194] |  |  |
| 4.11 | COc1ccc(C=NOCC#Cc2ccc(F)c(F)c2SC)cn1 [Beispiel 5.146] |  |  |
| 2.94 | COc1ccc(C=NOCC#Cc2ccc(F)c(SC)c2)cn1 [Beispiel 5.125] |  |  |
| 2.83 | CCOc1ncccc1C=NOCC#Cc1ccc(C)c([S+](C)[O-])c1 (centres unmarked) [Beispiel 5.171] |  |  |
| 3.24 | COc1ncc(C=NOCC#Cc2cccc(CC#N)c2)cc1F [Beispiel 5.044] |  |  |
| 4.72 | C=CCSc1cccc(C#CCON=Cc2ccc(OC)nc2)c1 [Beispiel 5.137] |  |  |
| 4.81 | COc1ncc(C=NOCC#Cc2cccc(SC)c2)cc1Br [Beispiel 5.197] |  |  |
| 4.9 | CCSc1cc(C#CCON=Cc2ccc(OC)nc2)ccc1C [Beispiel 5.133] |  |  |
| 3.18 | CSc1ccc(C=NOCC#Cc2cccc(CC#N)c2)cn1 [Beispiel 5.187] |  |  |
| 3.79 | COc1ccc(C=NOCC#Cc2ccccc2SC)cn1 [Beispiel 5.143] |  |  |
